These results are taken from ChEMBL document CHEMBL3352036, “Identification of 4'-O-β-D-glucosyl-5-O-methylvisamminol as a novel epigenetic suppressor of histone H3 phosphorylation at Ser10 and its interaction with 14-3-3ε” (Bioorg Med Chem Lett, 2014).

Activity calls are given as the source filed them. No cut-off for these calls is given here.

The target in data set [1] is T1, 14-3-3 protein epsilon (Homo sapiens) (UniProt P62258).
T1 sequence (whole entry): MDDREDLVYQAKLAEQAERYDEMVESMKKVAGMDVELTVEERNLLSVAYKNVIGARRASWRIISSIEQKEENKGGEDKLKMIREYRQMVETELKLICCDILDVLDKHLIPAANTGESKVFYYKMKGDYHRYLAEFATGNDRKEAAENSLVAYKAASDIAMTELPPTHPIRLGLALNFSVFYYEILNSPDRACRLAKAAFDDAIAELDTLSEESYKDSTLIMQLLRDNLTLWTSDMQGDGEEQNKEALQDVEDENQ
Put plainly: Inhibition of recombinant 14-3-3epsilon protein (unknown origin) expression in Escherichia coli assessed as reduction in 14-3-3epsilon and histone H3 Ser10 interaction using human HT-29 cells lysates at 1 uM incubated for 1 hr by Western blotting based GST-pull down assay. (In general: In western blotting, separated proteins are transferred to a membrane and probed.)

Data set [2] relates to HT-29. Put plainly: Inhibition of c-Jun protein expression in human HT-29 cells at 10 uM incubated for 1 hr by Western blotting method. The data set is classed as functional, cell-based.
Data set [3] deals with HT-29. Nature of the data set: Inhibition of 14-3-3epsilon protein expression in human HT-29 cells at 10 uM incubated for 1 to 4 hrs by Western blotting method. The data set is classed as functional, cell-based.
Data set [4] deals with HT-29. Nature of the data set: Inhibition of histone H3 Ser10 phosphorylation in human HT-29 cells at 10 uM incubated for 1 hr by Western blotting method. The format is functional, cell-based.
The target in data set [5] is Aurora kinase B (Homo sapiens) (UniProt Q96GD4). Put plainly: Inhibition of Aurora B kinase phosphorylation in human HT-29 cells at 10 uM incubated for 15 to 120 mins by Western blotting method. The format is cell-based.
Chain of Aurora kinase B (Homo sapiens) (Q96GD4 whole entry): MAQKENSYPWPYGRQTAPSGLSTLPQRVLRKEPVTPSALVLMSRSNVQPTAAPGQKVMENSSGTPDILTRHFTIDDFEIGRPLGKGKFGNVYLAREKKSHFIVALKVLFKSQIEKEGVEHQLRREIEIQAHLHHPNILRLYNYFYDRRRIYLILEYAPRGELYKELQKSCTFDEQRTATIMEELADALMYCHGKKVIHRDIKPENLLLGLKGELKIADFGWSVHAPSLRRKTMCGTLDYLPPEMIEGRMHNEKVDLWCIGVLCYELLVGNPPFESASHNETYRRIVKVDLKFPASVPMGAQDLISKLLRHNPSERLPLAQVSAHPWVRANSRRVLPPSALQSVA
For data set [6], the system named is HT-29. Put plainly: Induction of HO-1 protein protein expression in human HT-29 cells at 10 uM incubated for 6 to 24 hrs by Western blotting method. The format is functional, cell-based.
For data set [7], the system named is HT-29. Nature of the data set: Induction of cell cycle arrest in human HT-29 cells assessed as accumulation at G0/G1 phase at 10 uM incubated for 6 hrs by propidium iodide staining based FACS assay (reference value: 60.39%). The data set is classed as functional. For orientation: A flow cytometer gives signals particle by particle.
The target in data set [8] is Mitogen-activated protein kinase 8 (Homo sapiens) (UniProt P45983). Put plainly: Inhibition of JNK1 phosphorylation in human HT-29 cells at 10 uM incubated for 15 to 120 mins by Western blotting method. The data set is classed as cell-based.
Chain of Mitogen-activated protein kinase 8 (Homo sapiens) (P45983 whole entry): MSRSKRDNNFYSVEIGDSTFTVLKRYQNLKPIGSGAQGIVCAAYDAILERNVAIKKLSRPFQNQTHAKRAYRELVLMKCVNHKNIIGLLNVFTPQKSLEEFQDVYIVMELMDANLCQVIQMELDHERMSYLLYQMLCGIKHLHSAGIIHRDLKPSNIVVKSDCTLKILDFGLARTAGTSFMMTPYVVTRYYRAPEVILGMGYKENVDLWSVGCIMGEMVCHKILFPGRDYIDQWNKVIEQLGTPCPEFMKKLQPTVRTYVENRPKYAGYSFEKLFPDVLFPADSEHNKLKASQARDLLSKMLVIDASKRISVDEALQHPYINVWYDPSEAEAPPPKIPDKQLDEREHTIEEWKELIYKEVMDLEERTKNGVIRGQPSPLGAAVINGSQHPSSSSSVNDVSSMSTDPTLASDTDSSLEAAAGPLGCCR
For data set [9], the system named is HT-29. Nature of the data set: Induction of cell cycle arrest in human HT-29 cells assessed as accumulation at subG1 phase at 10 uM incubated for 6 hrs by propidium iodide staining based FACS assay (reference value: 0.79%). The data set is classed as functional.
The target of data set [10] is T2, Aurora kinase A (Homo sapiens) (UniProt O14965).
T2 sequence (whole entry): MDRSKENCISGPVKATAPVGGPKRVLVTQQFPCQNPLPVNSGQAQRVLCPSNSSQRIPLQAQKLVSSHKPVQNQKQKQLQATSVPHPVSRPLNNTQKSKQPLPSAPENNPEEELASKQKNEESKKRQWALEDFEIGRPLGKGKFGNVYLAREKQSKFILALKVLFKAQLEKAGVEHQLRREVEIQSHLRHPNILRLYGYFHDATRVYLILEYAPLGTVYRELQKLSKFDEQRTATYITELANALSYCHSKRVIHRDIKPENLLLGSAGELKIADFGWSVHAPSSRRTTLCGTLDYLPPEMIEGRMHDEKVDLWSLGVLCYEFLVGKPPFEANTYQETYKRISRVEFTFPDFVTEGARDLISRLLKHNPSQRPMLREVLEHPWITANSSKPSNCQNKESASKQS
Nature of the data set: Inhibition of Aurora A kinase phosphorylation in human HT-29 cells at 10 uM incubated for 15 to 120 mins by Western blotting method. The data set is classed as cell-based.

Data set [11] has as its system HT-29. Nature of the data set: Induction of cell cycle arrest in human HT-29 cells assessed as accumulation at G0/G1 phase at 10 uM incubated for 24 hrs by propidium iodide staining based FACS assay (reference value: 60.39%). The format is functional.
Data set [12] has as its target MAP kinase p38 (Homo sapiens) (UniProt O15264+Q15759+Q16539+P53778). Put plainly: Inhibition of p38 phosphorylation in human HT-29 cells at 10 uM incubated for 15 to 120 mins by Western blotting method. The format is cell-based.
The subject of data set [13] is HT-29. Put plainly: Induction of cell cycle arrest in human HT-29 cells assessed as accumulation at subG1 phase at 10 uM incubated for 24 hrs by propidium iodide staining based FACS assay (reference value: 0.79%). The data set is classed as functional.
The subject of data set [14] is HT-29. Put plainly: Induction of cell cycle arrest in human HT-29 cells assessed as accumulation at S phase at 10 uM incubated for 6 hrs by propidium iodide staining based FACS assay (reference value: 21.94%). The format is functional.
In data set [15] the test system is HT-29. Put plainly: Induction of Nrf2 protein protein expression in human HT-29 cells at 10 uM incubated for 6 to 24 hrs by Western blotting method. The data set is classed as functional, cell-based.
The target of data set [16] is T3, Aurora kinase C (Homo sapiens) (UniProt Q9UQB9).
T3 sequence (whole entry): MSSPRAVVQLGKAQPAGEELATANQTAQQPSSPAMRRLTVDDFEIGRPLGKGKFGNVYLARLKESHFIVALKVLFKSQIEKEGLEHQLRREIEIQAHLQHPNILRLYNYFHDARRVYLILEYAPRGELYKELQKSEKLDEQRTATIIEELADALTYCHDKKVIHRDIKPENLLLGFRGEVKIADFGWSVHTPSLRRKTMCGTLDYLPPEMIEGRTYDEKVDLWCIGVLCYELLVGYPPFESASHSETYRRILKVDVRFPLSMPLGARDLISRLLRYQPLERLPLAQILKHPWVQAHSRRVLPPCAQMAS
Nature of the data set: Inhibition of Aurora C kinase phosphorylation in human HT-29 cells at 10 uM incubated for 15 to 120 mins by Western blotting method. The data set is classed as cell-based.

The test system of data set [17] is HT-29. Put plainly: Induction of cell cycle arrest in human HT-29 cells assessed as accumulation at G2/M phase at 10 uM incubated for 24 hrs by propidium iodide staining based FACS assay (reference value: 14.8%). The data set is classed as functional.
Data set [18] relates to HT-29. Nature of the data set: Toxicity against human HT-29 cells assessed as effect on cell viability at 10 uM incubated for 24 hrs by MTT assay. The note with it: ht-29, 24 h. The format is cell-based. A general note: Tetrazolium assays rely on reduction of a dye to a coloured formazan, in cell work by metabolically active cells.
The test system of data set [19] is HT-29. Nature of the data set: Induction of cell cycle arrest in human HT-29 cells assessed as accumulation at G2/M phase at 10 uM incubated for 6 hrs by propidium iodide staining based FACS assay (reference value: 14.8%). The data set is classed as functional.
Data set [20] concerns the target Mitogen-activated protein kinase 9 (Homo sapiens) (UniProt P45984). Put plainly: Inhibition of JNK2 phosphorylation in human HT-29 cells at 10 uM incubated for 15 to 120 mins by Western blotting method. The data set is classed as cell-based.
Data set [21] deals with HT-29. Nature of the data set: Induction of cell cycle arrest in human HT-29 cells assessed as accumulation at S phase at 10 uM incubated for 24 hrs by propidium iodide staining based FACS assay (reference value: 21.94%). The format is functional.

Chain of Mitogen-activated protein kinase 9 (Homo sapiens) (P45984 whole entry, looked up): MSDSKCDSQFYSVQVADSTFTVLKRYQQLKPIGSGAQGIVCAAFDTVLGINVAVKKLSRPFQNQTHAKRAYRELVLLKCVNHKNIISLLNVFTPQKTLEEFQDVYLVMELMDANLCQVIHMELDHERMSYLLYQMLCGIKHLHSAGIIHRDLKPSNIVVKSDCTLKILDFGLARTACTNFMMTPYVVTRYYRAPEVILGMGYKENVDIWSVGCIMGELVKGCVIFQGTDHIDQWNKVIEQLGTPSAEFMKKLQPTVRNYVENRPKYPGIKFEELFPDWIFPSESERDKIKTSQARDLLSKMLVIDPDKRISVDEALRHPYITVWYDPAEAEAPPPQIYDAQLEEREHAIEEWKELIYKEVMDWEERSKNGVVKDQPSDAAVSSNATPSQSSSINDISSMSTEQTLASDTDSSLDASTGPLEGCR

For `CC1(C)CC[C@]2(C(=O)O)CC[C@]3(C)C(=CC[C@@H]4[C@@]5(C)CC[C@H](O)C(C)(C)[C@@H]5CC[C@]43C)[C@@H]2C1`, the inhibition result in data set [1] and in [3] was “inactive” each time. Moreover, the inhibition entry in [2] and in data set [4] was “Active” throughout.
For the compound `C[C@H]1[C@H](C)CC[C@]2(C)CC[C@]3(C)C(=CC[C@@H]4[C@@]5(C)CC[C@H](O)C(C)(C)[C@@H]5CC[C@]43C)[C@H]12`, the inhibition entry in data set [1] and in [3] was “inactive” each time. Also, the inhibition result in data set [2] and in [4] was “Active” each time.
Consider `CCCCCCCCCCCCC/C=C1/C(=O)O[C@H](C)[C@@H]1O`, for which the inhibition entry in data set [1] and in data set [3] was “inactive” in each case. The inhibition result in data set [2] and in data set [4] was “Active” each time.
For `COc1c2c(cc3oc(C)cc(=O)c13)OC(C(C)(C)O[C@H]1O[C@@H](CO)[C@H](O)[C@@H](O)[C@@H]1O)C2` (stereo partly drawn), the inhibition entry in data set [5], in [1], in data set [8], in data set [2], in data set [10] and in data set [16] was “Active” in each case. Besides, the inhibition result in data set [20] and in data set [4] was “Active” each time. Also, the outcome in data set [6] and in data set [15] was Active. Besides, the Activity in data set [7] turned out to be 58.61%; in data set [9], 1.06%; in [11], 59.07%; in [13], 0.88%; in data set [14], 16.85%; in data set [17], 22.29%. In addition, the Activity result in [18] is reported as “Non-toxic”; in [19], 21.86%; in [21], 15.97%. The inhibition entry in data set [12] and in data set [3] was “inactive” in each case.
